Each structure is given as a SMILES string. Read-outs that look alike come from different tables or passages of the source.

The test has as its target T1, P2X7 receptor (Homo sapiens, UniProt Q99572).
T1 construct: host or cells: THP-1 cells differentiated with LPS and IFN-γ
T1 sequence (Q99572 1-595): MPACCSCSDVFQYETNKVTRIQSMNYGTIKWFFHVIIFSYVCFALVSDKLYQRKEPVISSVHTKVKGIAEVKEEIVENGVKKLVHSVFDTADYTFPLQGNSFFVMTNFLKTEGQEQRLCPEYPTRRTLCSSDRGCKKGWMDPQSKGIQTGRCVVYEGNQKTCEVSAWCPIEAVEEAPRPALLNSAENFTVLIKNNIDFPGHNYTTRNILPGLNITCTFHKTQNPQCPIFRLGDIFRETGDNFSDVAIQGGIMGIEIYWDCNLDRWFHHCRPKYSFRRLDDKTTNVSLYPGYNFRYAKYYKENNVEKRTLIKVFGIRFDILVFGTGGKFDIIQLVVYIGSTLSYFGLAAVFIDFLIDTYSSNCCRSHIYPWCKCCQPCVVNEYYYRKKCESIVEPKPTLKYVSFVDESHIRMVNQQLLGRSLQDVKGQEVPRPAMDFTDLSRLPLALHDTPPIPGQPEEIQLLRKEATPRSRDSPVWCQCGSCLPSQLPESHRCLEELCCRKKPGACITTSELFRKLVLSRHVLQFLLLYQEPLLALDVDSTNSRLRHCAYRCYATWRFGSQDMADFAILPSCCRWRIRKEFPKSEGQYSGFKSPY
Kind of test: IL-1β release assay in differentiated THP-1 cells stimulated with BzATP (Example 9). The format is cell-based. More on the design: inhibition: dose or concentration left out as unconfirmed. To be noted: for inhibition at 0.3 µM: 0.3 μM compound, read-out: IL-1β % Inhib. @ 0.3 μM; for inhibition at 0.3 µM / inhibition at 0.1 µM: differentiated THP-1 cells, BzATP 250 uM; for IC50: THP-1 cells, BzATP-stimulated IL-1β release, four parameter logistic fit; for inhibition: THP-1, read-out: IL-1β % Inhib.; for inhibition at 0.1 µM: 0.1 μM compound. A digest of the protocol:
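IC50 derived by four-parameter logistic fit of percent inhibition of IL-1β release, measured by ELISA after 45 min stimulation with 250 uM BzATP. Cells: THP-1 differentiated 16 h with 100 ng/mL LPS plus IFN-γ, LPS-primed 2 h, compound added 30 min beforehand.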

The mark [1] stands for this setting: "*" class symbols, read-out: IL-1β % Inhib. ("*" symbols: at 0.1 μM).

`COc1ccc(CC(=O)Nc2cccc3c(=O)n(CCN4CCOCC4)ccc23)cc1C` [Compound 1234]: the inhibition at 0.3 µM (symbols + to ++++) is 0 to 25%. On the same count and under the same terms, the result for `COCCn1ccc2c(NC(=O)CC3CC4CC[C@H]3C4)cccc2c1=O` (stereo partly shown) [Compound 1326] reads ≥ 76%. Broadly, the IC50 is the concentration at which inhibition is half-maximal. In turn, `CC(C(=O)Nc1cccc2c(=O)n(CCN(C)C)ccc12)c1ccc(Cl)cc1` (stereo not shown) [Compound 1391] returned an IC50 of 45.7 nM. Moreover, the inhibition at 0.3 µM (symbols + to ++++) was ≥ 76%.

In the case of `CC(C)(C)Cn1ccc2c(NC(=O)c3ccc4c(c3)OCCCO4)cccc2c1=O` [Compound 1273], where the note is “symbols + to ++++”, the inhibition at 0.3 µM lay within 0 to 25%. As to `Cc1cccc(C(=O)Nc2cccc3c(=O)n(CCN(C)C)ccc23)c1Cl` [Compound 1183], the inhibition at 0.3 µM ('+' class symbols) is 0 to 25%. On to `Cc1ccccc1CC(=O)Nc1cccc2c(=O)n(C)ccc12` [Compound 1296], for which, where the note is “symbols + to ++++”, the inhibition at 0.3 µM lay in the range of 0 to 25%. Regarding `Cc1ccc(C(=O)Nc2cccc3c(=O)n(CCN(C)C)ccc23)c(C)c1` [Compound 1141], the inhibition at 0.3 µM ('+' class symbols) is 0 to 25%. In the case of `CC(C)(C)Cn1ccc2c(NC(=O)c3cc(Cl)ccc3Cl)cccc2c1=O` [Compound 1412], the inhibition is 0 to 25%. In the case of `CN1CCC(Cn2ccc3c(NC(=O)CCc4ccc(Cl)cc4)cccc3c2=O)CC1` [Compound 1485], the inhibition was in the range of 0 to 25%.

For the compound `O=C(CCCc1ccccc1)Nc1cccc2c(=O)n(Cc3cccnc3)ccc12` [Compound 1357], the inhibition at 0.3 µM (symbols + to ++++) is 0 to 25%. Turning to `COc1c(C)cc(C(=O)Nc2cccc3c(=O)n(Cc4cccnc4)ccc23)cc1C` [Compound 1361], the inhibition at 0.3 µM (symbols + to ++++) lay in the range of 0 to 25%. `CCOc1ccccc1CC(=O)Nc1cccc2c(=O)n(CC(C)(C)C)ccc12` [Compound 1280]: the inhibition at 0.3 µM (symbols + to ++++) lay within 0 to 25%. `O=C(CC1CC2CC[C@H]1C2)Nc1cccc2c(=O)n(CCN3CCOCC3)ccc12` (stereo partly shown) [Compound 1222]: the inhibition at 0.3 µM (symbols + to ++++) was in the range of 0 to 25%.

Regarding `Cc1ccc(CCC(=O)Nc2cccc3c(=O)n(Cc4ccc(OC(F)(F)F)cc4)ccc23)c(C)c1` [Compound 1609], under setting [1], the inhibition at 0.1 µM was 0 to 25%. With `COc1ccc(CC(=O)Nc2cccc3c(=O)n(CCN(C)C)ccc23)cc1OC` [Compound 1158], the inhibition at 0.3 µM ('+' class symbols) lay within 0 to 25%. The same measure, in the same setting: in the case of `COCCn1ccc2c(NC(=O)c3ccc(Cl)c(C)c3)cccc2c1=O` [Compound 1071] it was 0 to 25%; in that of `Cc1ccc(C)c(CC(=O)Nc2cccc3c(=O)n(CCN4CCOCC4)ccc23)c1` [Compound 1042], 0 to 25%; in that of `O=C(CCc1cccc(Cl)c1)Nc1cccc2c(=O)n(CC3CCOCC3)ccc12` [Compound 1135], 0 to 25%.

For `Cc1cccc(CC(=O)Nc2cccc3c(=O)n(CCN(C)C)ccc23)c1` [Compound 1159], the inhibition at 0.3 µM ('+' class symbols) lay within 0 to 25%. In the case of `Cc1cccc(C(=O)Nc2cccc3c(=O)n(CCCN4CCCC4=O)ccc23)c1C` [Compound 1508], the inhibition lay within 0 to 25%. In the case of `COc1cccc(CCC(=O)Nc2cccc3c(=O)n(CC(C)(C)C)ccc23)c1` [Compound 1049], under “'+' class symbols”, the inhibition at 0.3 µM lay in the range of 0 to 25%. Regarding `Cc1ccc(C)c(CC(=O)Nc2cccc3c(=O)n(CC(C)(C)C)ccc23)c1` [Compound 1051], for the setting “'+' class symbols”, the inhibition at 0.3 µM was 0 to 25%.

Take `Cc1cc(C(=O)Nc2cccc3c(=O)n(Cc4cccnc4)ccc23)ccc1Cl` [Compound 1081]: where the note is “'+' class symbols”, the inhibition at 0.3 µM was in the range of 0 to 25%. On the same count and under the same terms, the result for `O=C(Nc1cccc2c(=O)n(CCN3CCOCC3)ccc12)c1ccc(-c2ccccc2)o1` [Compound 1040] reads 0 to 25%. On to `COCCn1ccc2c(NC(=O)C3CCC(C)CC3)cccc2c1=O` (stereo not shown) [Compound 1061], for which the inhibition at 0.3 µM ('+' class symbols) lay in the range of 0 to 25%.

In turn, `CC(C)(C)OC(=O)N1CCC[C@H]1Cn1ccc2c(NC(=O)Cc3ccc(Cl)c(C(F)(F)F)c3)cccc2c1=O` [Compound 1621] gave an IC50 of 6.86 nM. The inhibition at 0.3 µM ("+" class symbols) was ≥ 76%. `CC(=O)OCCn1ccc2c(NC(=O)CC3CCCCC3)cccc2c1=O` [Compound 1379] came in with an IC50 of 41.5 nM. Where the note is “symbols + to ++++”, the inhibition at 0.3 µM is ≥ 76%. Consider `COCCn1ccc2c(NC(=O)c3cccc(C)c3Cl)cccc2c1=O` [Compound 1339], for which the inhibition at 0.3 µM (symbols + to ++++) was 0 to 25%.

Regarding `COc1ccc(OC)c(CC(=O)Nc2cccc3c(=O)n(C)ccc23)c1` [Compound 1422], the inhibition lay in the range of 0 to 25%.

`COc1ccc(CC(=O)Nc2cccc3c(=O)n(CCCN4CCCC4=O)ccc23)c(OC)c1` [Compound 1535]: the inhibition lay in the range of 0 to 25%. Same read-out and setting: the result for `Cc1ccc(Cl)cc1C(=O)Nc1cccc2c(=O)n(CCCN3CCCC3=O)ccc12` [Compound 1541] reads 0 to 25%. For the compound `O=C(Nc1cccc2c(=O)n(Cc3cccnc3)ccc12)c1cc2ccccc2o1` [Compound 1358], the inhibition at 0.3 µM (symbols + to ++++) was 0 to 25%. Regarding `Cc1cccc(C(=O)Nc2cccc3c(=O)n(CC4CCOCC4)ccc23)c1Cl` [Compound 1132], for the setting “'+' class symbols”, the inhibition at 0.3 µM fell in the range of 0 to 25%. Regarding `Cc1ccc(C)c(C(=O)Nc2cccc3c(=O)n(CCN(C)C)ccc23)c1` [Compound 1142], the inhibition at 0.3 µM ('+' class symbols) lay in the range of 0 to 25%. Turning to `O=C(Nc1cccc2c(=O)n(Cc3ccc(OC(F)(F)F)cc3)ccc12)c1ccccc1Cl` [Compound 1560], the inhibition lay within 0 to 25%. For `COc1ccc(CC(=O)Nc2cccc3c(=O)n(Cc4cccnc4)ccc23)c(OC)c1` [Compound 1365], under “symbols + to ++++”, the inhibition at 0.3 µM lay within 0 to 25%. Turning to `COCCn1ccc2c(NC(=O)C(C)c3ccccc3)cccc2c1=O` (stereo not shown) [Compound 1431], the inhibition lay within 0 to 25%. Turning to `COc1c(C)cc(C(=O)Nc2cccc3c(=O)n(CC(C)(C)C)ccc23)cc1C` [Compound 1267], where the note is “symbols + to ++++”, the inhibition at 0.3 µM was 0 to 25%.

Take `COc1cccc(CC(=O)Nc2cccc3c(=O)n(Cc4ccc(OC(F)(F)F)cc4)ccc23)c1` [Compound 1580]: the inhibition lay within 0 to 25%. On to `COc1cccc(CCC(=O)Nc2cccc3c(=O)n(Cc4cccnc4)ccc23)c1` [Compound 1075], for which the inhibition at 0.3 µM ('+' class symbols) was 0 to 25%.

Take `O=C(Nc1cccc2c(=O)n(Cc3ccc(OC(F)(F)F)cc3)ccc12)c1ccc(-c2ccccc2)o1` [Compound 1551]: the inhibition is 0 to 25%. As for `COCCn1ccc2c(NC(=O)Cc3csc4ccccc34)cccc2c1=O` [Compound 1329], the inhibition at 0.3 µM (symbols + to ++++) is 0 to 25%. For the compound `Cn1ccc2c(NC(=O)c3ccc4c(c3)OCCCO4)cccc2c1=O` [Compound 1305], the inhibition at 0.3 µM (symbols + to ++++) lay in the range of 0 to 25%. In the case of `Cc1ccccc1CCC(=O)Nc1cccc2c(=O)n(CC3CCN(C)CC3)ccc12` [Compound 1457], the inhibition was 0 to 25%. In the case of `CN(C)CCn1ccc2c(NC(=O)c3ccc(C(C)(C)C)cc3)cccc2c1=O` [Compound 1147], where the note is “'+' class symbols”, the inhibition at 0.3 µM was 0 to 25%. For `CN(C)CCn1ccc2c(NC(=O)c3ccc4c(c3)OCCCO4)cccc2c1=O` [Compound 1170], under “'+' class symbols”, the inhibition at 0.3 µM lay in the range of 0 to 25%.

For the compound `O=C(Nc1cccc2c(=O)n(CCCN3CCCC3=O)ccc12)c1cc2cc(Cl)ccc2o1` [Compound 1543], the inhibition was 0 to 25%. On the same count and under the same terms, the result for `O=C(CCc1ccc(Cl)cc1)Nc1cccc2c(=O)n(Cc3cccnc3)ccc12` [Compound 1455] reads 0 to 25%.

Regarding `CN(C)CCn1ccc2c(NC(=O)c3ccc(S(C)(=O)=O)cc3)cccc2c1=O` [Compound 1008], the IC50 is > 1000 nM. Consider `Cc1cc(C(=O)Nc2cccc3c(=O)n(CC4CCOCC4)ccc23)ccc1Cl` [Compound 1033], for which, where the note is “'+' class symbols”, the inhibition at 0.3 µM was in the range of 0 to 25%.

With `O=C(Nc1cccc2c(=O)n(Cc3cccnc3)ccc12)c1ccc(-c2ccccc2)o1` [Compound 1074], the inhibition at 0.3 µM ('+' class symbols) was in the range of 0 to 25%.

As to `COc1ccc(CC(=O)Nc2cccc3c(=O)n(Cc4ccc(OC(F)(F)F)cc4)ccc23)c(OC)c1` [Compound 1601], the inhibition at 0.1 µM under setting [1] lay within 0 to 25%. As for `O=C(CCCc1ccccc1)Nc1cccc2c(=O)n(CC3CCOCC3)ccc12` [Compound 1108], the inhibition at 0.3 µM ('+' class symbols) is 0 to 25%. In the case of `CCOc1ccc(C(=O)Nc2cccc3c(=O)n(CC(C)(C)C)ccc23)cc1` [Compound 1415], the inhibition was 0 to 25%. As to `CN1CCC(Cn2ccc3c(NC(=O)c4cccc5ccccc45)cccc3c2=O)CC1` [Compound 1469], the inhibition fell in the range of 0 to 25%.

As for `O=C(Nc1cccc2c(=O)n(CC3CCOCC3)ccc12)[C@]12C[C@@H]3CC1C[C@@H](C3)C2` [Compound 1116], the inhibition at 0.3 µM ('+' class symbols) fell in the range of 0 to 25%. For `COc1ccc(C(=O)Nc2cccc3c(=O)n(CCN4CCOCC4)ccc23)c(C)c1` [Compound 1039], for the setting “'*' class symbols, read-out: IL-1β % Inhib. (asterisk classes, 0.1 μM)”, the inhibition at 0.1 µM was 0 to 25%. Consider `CC(C)(C)Cn1ccc2c(NC(=O)Cc3ccccc3Cl)cccc2c1=O` [Compound 1253], for which the inhibition at 0.3 µM (symbols + to ++++) fell in the range of 0 to 25%.
